Assays:
Experiment in all cases: KINOMEscan competition binding
ERBB4 = ERBB4 (Homo sapiens, UniProt Q15303); details: read-out: %Inh ERBB4
DCAMKL1 = target: T1, DCAMKL1 (Homo sapiens, UniProt O15075); details: read-out: %Inh DCAMKL1
T1 sequence (O15075 1-740): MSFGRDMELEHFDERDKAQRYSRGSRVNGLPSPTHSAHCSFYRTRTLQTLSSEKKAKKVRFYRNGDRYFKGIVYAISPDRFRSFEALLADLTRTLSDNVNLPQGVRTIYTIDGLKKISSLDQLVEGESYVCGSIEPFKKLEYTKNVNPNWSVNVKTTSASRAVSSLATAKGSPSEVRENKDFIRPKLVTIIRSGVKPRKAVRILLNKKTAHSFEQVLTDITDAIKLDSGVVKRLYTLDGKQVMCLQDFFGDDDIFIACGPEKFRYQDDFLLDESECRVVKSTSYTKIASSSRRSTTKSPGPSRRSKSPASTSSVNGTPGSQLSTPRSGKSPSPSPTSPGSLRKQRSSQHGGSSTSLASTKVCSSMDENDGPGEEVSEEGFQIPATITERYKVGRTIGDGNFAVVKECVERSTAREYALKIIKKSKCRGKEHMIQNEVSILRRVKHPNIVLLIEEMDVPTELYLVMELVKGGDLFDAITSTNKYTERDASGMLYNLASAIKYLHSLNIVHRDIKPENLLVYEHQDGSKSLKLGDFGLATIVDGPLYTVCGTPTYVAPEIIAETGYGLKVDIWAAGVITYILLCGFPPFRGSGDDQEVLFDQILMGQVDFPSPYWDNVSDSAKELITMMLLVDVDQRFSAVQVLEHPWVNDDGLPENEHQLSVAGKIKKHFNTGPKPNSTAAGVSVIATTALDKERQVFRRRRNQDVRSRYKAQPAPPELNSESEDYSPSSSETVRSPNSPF

FLT3 = target: T2, FLT3 (Homo sapiens, UniProt P36888); details: read-out: %Inh FLT3
T2 sequence (P36888 27-993): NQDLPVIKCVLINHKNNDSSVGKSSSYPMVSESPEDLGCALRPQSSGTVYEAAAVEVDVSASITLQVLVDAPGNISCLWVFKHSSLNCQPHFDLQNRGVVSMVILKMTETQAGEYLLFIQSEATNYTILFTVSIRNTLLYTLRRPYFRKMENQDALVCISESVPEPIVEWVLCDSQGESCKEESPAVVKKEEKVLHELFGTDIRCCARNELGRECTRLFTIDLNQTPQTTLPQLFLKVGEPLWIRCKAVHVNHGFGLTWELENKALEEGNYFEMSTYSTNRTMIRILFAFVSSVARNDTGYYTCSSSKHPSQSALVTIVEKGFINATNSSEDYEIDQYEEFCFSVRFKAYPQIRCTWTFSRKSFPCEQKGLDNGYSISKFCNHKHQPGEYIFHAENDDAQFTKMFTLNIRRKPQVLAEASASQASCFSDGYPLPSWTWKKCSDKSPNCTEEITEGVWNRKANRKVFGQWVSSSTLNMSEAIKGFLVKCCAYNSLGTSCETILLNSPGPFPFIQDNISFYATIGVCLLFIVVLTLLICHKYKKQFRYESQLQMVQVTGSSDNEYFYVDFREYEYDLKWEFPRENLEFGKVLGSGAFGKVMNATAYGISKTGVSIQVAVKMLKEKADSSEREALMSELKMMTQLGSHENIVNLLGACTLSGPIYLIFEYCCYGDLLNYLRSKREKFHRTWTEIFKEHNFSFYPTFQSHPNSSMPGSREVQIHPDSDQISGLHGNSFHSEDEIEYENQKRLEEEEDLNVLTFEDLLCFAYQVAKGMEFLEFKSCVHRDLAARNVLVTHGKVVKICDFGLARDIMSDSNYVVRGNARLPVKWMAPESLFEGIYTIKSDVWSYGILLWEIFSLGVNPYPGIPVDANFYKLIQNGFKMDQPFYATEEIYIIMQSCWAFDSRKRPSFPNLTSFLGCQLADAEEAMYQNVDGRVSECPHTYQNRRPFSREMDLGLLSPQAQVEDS

CAMK2G = CAMK2G (Homo sapiens, UniProt Q13555); details: read-out: %Inh CAMK2G
CAMK2G, sequence (Q13555 whole entry): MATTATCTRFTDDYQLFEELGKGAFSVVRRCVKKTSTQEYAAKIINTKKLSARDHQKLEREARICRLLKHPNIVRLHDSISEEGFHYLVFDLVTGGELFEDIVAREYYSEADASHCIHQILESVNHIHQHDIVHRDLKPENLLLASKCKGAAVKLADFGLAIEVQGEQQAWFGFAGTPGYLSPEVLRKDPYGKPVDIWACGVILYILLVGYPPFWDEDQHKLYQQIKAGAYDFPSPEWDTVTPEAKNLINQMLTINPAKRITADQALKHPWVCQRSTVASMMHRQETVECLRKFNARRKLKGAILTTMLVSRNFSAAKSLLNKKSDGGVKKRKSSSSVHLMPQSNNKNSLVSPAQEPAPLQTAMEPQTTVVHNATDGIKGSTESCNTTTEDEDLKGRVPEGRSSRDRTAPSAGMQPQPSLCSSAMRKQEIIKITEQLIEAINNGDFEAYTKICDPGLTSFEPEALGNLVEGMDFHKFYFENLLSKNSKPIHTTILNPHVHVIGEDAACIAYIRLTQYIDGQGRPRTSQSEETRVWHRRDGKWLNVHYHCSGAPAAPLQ

CSNK1D = CSNK1D (Homo sapiens, UniProt P48730); details: read-out: %Inh CSNK1D
CSNK1D, sequence (P48730 whole entry): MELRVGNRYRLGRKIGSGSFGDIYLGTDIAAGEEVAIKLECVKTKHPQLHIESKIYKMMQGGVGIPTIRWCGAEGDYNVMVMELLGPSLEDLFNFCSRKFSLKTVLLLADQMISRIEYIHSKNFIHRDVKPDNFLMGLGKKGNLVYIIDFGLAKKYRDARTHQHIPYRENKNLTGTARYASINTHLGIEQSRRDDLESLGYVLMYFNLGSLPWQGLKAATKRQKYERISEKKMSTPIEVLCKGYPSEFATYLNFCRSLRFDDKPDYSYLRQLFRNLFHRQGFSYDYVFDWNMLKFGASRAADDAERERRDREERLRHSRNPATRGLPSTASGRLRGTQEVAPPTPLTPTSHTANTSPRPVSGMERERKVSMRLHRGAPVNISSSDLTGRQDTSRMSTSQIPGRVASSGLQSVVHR

KIT-autoinhibited = KIT-autoinhibited (Homo sapiens, UniProt P10721); details: read-out: %Inh KIT-autoinhibited
ERN1 = ERN1 (Homo sapiens, UniProt O75460); details: read-out: %Inh ERN1
ERN1, sequence (O75460 19-977): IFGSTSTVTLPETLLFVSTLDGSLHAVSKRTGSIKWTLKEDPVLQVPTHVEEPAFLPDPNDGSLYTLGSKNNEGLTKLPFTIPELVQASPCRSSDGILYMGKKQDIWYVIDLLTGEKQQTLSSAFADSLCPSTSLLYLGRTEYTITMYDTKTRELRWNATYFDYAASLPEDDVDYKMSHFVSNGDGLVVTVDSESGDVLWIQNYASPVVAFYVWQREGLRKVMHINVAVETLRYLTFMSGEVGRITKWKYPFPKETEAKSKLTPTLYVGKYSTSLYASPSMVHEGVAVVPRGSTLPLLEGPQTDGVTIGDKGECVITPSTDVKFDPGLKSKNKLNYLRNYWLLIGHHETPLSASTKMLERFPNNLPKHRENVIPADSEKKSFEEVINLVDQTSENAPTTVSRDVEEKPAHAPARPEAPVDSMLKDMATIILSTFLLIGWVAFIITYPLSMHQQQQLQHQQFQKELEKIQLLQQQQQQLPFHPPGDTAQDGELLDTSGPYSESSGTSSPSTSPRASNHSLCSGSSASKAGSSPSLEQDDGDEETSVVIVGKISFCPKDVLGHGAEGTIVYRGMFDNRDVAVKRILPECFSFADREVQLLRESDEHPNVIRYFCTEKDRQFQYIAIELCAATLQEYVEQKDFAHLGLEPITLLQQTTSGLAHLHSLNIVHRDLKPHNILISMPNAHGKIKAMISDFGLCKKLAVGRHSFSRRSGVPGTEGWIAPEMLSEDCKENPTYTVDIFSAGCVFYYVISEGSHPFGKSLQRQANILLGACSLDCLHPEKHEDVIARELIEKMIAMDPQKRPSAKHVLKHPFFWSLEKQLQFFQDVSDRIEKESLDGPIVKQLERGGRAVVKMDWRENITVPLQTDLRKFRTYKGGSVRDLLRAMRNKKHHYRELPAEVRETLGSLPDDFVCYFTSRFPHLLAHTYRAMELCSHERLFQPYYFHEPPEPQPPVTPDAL

CDK7 = CDK7 (Homo sapiens, UniProt P50613); details: read-out: %Inh CDK7
CDK7, sequence (P50613 whole entry): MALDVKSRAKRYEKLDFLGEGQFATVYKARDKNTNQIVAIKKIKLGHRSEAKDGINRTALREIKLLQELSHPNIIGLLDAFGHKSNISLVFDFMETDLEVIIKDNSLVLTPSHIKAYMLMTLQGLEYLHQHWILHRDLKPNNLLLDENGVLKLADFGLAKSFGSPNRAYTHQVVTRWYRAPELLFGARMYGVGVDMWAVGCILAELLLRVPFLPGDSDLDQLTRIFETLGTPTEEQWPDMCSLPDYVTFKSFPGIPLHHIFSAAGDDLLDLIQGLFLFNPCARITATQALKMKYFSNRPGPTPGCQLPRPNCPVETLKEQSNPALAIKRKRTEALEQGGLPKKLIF

FYN = FYN (Homo sapiens, UniProt P06241); details: read-out: %Inh FYN
CAMK1G = CAMK1G (Homo sapiens, UniProt Q96NX5); details: read-out: %Inh CAMK1G
CAMK1G, sequence (Q96NX5 whole entry): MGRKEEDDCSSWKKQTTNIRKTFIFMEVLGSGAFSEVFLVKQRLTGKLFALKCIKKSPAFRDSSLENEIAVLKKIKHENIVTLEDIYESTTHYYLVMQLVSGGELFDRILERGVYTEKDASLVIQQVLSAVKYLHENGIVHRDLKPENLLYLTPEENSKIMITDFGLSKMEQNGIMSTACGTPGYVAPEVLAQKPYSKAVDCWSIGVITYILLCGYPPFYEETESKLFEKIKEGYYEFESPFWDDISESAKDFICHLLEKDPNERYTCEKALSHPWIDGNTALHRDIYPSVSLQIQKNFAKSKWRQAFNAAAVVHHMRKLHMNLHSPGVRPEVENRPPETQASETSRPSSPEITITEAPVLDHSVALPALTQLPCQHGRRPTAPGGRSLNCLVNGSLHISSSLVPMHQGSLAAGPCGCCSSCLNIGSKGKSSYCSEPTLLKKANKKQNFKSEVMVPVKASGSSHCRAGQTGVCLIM

EIF2AK1 = EIF2AK1 (Homo sapiens, UniProt Q9BQI3); details: read-out: %Inh EIF2AK1
EIF2AK1, sequence (Q9BQI3 whole entry): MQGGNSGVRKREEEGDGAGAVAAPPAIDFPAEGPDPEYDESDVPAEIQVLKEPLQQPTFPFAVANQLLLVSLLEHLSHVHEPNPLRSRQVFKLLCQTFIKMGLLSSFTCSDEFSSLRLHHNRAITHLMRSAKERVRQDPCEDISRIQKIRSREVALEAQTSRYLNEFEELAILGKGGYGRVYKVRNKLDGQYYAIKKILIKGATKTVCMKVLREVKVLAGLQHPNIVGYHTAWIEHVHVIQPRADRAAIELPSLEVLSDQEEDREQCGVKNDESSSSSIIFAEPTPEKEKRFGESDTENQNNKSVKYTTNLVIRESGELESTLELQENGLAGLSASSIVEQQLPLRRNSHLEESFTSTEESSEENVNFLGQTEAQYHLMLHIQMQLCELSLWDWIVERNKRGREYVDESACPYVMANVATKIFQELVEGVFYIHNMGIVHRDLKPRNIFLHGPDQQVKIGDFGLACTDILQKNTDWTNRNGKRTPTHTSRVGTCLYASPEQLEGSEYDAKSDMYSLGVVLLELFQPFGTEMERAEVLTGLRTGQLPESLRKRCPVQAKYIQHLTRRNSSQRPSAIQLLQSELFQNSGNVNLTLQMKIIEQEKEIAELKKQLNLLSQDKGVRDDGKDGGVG

ERBB4, sequence (Q15303 26-1308): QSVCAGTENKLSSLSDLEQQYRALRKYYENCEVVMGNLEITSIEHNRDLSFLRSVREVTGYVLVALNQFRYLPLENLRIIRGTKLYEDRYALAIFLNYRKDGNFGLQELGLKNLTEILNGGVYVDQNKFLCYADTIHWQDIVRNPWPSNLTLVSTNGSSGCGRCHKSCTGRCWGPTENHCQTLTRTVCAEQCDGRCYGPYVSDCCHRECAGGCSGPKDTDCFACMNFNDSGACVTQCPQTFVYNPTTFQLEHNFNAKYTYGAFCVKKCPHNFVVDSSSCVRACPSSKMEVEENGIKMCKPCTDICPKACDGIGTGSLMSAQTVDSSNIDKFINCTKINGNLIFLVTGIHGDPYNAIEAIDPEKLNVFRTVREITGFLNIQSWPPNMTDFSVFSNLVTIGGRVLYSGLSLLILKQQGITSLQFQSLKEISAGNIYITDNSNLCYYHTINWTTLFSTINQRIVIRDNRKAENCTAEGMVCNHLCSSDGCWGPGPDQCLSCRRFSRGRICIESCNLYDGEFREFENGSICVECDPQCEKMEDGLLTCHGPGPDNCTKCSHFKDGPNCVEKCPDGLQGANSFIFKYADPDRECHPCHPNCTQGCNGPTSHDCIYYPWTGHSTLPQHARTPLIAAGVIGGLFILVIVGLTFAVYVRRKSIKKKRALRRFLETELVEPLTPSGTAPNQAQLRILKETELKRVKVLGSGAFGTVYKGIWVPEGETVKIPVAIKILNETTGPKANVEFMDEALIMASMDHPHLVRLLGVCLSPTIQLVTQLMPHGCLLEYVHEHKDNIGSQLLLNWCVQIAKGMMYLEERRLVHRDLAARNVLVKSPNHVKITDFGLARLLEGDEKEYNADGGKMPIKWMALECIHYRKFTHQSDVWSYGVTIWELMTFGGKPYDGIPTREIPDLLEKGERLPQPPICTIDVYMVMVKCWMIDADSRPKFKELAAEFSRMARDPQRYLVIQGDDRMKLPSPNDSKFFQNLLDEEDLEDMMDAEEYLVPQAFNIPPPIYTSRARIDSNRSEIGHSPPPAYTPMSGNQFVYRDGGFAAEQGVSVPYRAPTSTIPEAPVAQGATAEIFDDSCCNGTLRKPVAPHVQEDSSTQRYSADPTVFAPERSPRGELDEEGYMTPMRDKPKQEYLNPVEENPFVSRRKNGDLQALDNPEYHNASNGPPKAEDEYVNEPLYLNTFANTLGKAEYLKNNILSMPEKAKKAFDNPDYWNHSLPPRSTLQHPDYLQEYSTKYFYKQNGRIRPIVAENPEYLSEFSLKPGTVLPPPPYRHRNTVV

Compound	inhibition at 1 µM (ERBB4) [%]	inhibition at 1 µM (DCAMKL1) [%]	inhibition at 1 µM (FLT3) [%]	inhibition at 1 µM (CAMK2G) [%]	inhibition at 1 µM (CSNK1D) [%]	inhibition at 1 µM (KIT-autoinhibited) [%]	inhibition at 1 µM (ERN1) [%]	inhibition at 1 µM (CDK7) [%]	inhibition at 1 µM (FYN) [%]	inhibition at 1 µM (CAMK1G) [%]	inhibition at 1 µM (EIF2AK1) [%]
Cn1cc(-c2cnc(N)c3c(-c4ccc5c(c4)CCN5C(=O)Cc4ccccc4)csc23)cn1 [UNC10225012A]	0	0	99	13	0	32	28	19	25	0	7
CS(=O)(=O)Cc1ccc(Nc2nccc(-c3c(-c4cccc(NC(=O)C5CCCCC5)c4)nn4ncccc34)n2)cc1 [UNC10225159A]	74	0	88	0	0	14	33	6	1	0	22
Cc1ccc(NC(=O)Nc2cccc(C(F)(F)F)c2)cc1 [UNC10225187A]	0	0	59	4	0	3	0	12	0	10	0
COc1cccc(OC)c1C(=O)Nc1cccc(-c2nn3ccccc3c2-c2ccnc(Nc3cccc(F)c3)n2)c1 [UNC10225310A]	84	16	49	0	9	11	10	22	22	0	0
O=c1cc(N2CCOCC2)nc2n(Cc3cccc(Cl)c3Cl)c(C3CC3)nn12 [UNC10225469A]	0	0	10	0	7	15	0	5	6	5	0

Source: PMC5540273, “Progress towards a public chemogenomic set for protein kinases and a call for contributions” (PLoS ONE, 2017)
